Measured values published in patent US20110105393A1, “METHODS FOR PROMOTING STEM CELL PROLIFERATION AND SURVIVAL” (priority 2007, published 2011).

Key:
[1] = tested on: blood vessels (RECA-1); experiment: Blood vessel number and size in striatum (RECA-1 staining) after 6OHDA lesion and treatment; settings: for blood vessel numbers or size (undesirable effects, summary): rat, in vivo; for number and size of blood vessels in the striatum: 13 weeks after a single treatment, pattern recognition software
Description: Blood vessel counting and area quantitation: Zeiss software was used to identify, count, and measure blood vessels stained for the pan-endothelial marker RECA-1. To measure the average distance between adjacent Hes3+ cells along the same blood vessel, 25 high-power (×63) confocal z-stack images were used from brain sections stained for endothelial markers and Hes3.
6OHDA Lesion. Some animals underwent unilateral lesion of the nigrostriatal dopamine pathway by stereotactical injection of 50 μg 6-hydroxydopamine (6-OHDA) into the right striatum, using the following coordinates: bregma AP +0.5 mm, ML −3.0 mm, VD +5.5 mm.
Pharmacological treatments. Unlesioned animals, or animals two weeks after 6-OHDA lesion, were treated with different pharmacologic agents. Five microliters (μl) of different drugs were stereotactically injected into the right lateral ventricle using the following stereotaxic coordinates: bregma AP −0.9 mm, ML −1.4 mm, VD +3.8 mm. The following reagents were used: Dll4 (2 mg/ml), Ang-2 (1 mg/ml), insulin (8 mg/ml), Jak-Inhibitor (20 μM), either alone or in combination.
In vivo Experiments: Male adult (3-6 months) Sprague Dawley rats (Charles River Laboratories), weighing 250-350 gm, was used for pharmacological treatments and lesion experiments. For 6OHDA Lesion: animals underwent unilateral lesion of the nigrostriatal dopamine pathway by stereotactical injection of 50 μg 6-hydroxydopamine (6-OHDA) into the right striatum, using the following coordinates: bregma AP +0.5 mm, ML −3.0 mm, VD +5.5 mm. For pharmacological treatments: unlesioned animals, or animals two weeks after 6OHDA lesion, were treated with different pharmacologic agents. Five μl of different drugs were stereotactically injected into the right lateral ventricle using the following stereotaxic coordinates: bregma AP −0.9 mm, ML −1.4 mm, VD +3.8 mm. The following reagents were used: Dll4 (2 mg/ml), Ang2 (1 mg/ml), insulin (8 mg/ml), Jak-Inhibitor (20 μM), either alone or in combination. After all surgeries, animals were allowed to recover from the anesthesia and were put back into their home cages, where they were given access to food and water ad libitum. For labeling of dividing cells: Animals received intraperitoneal injection of the tracer bromodeoxyuridine (BrdU) (50 mg/kg) every 12 hours for 5 days beginning on day 1 post-op to label dividing cells. Amphetamine induced rotations: At multiple time points over the course of the experiment, lesioned rats were injected intra-peritoneally with D-Amphetamine sulfate (5 mg/kg) and placed in automated rotometer bowls. Rotational behavior was assessed by monitoring total number of whole body (360°) turns over 60 min.

[2] = tested on: dopamine neurons in the substantia nigra; experiment: Fluorogold retrograde labelling of dopamine neurons in the substantia nigra, 6OHDA model; format: in vivo, rat; settings: for neuroprotective effects on neurons: summary of in vivo treatments; for cell body diameter of TH+/Fluorogold+ cells in the substantia nigra: treatment 2-weeks following 6OHDA lesion, ipsilateral (FIG. 6e)
Description: (§1) Pharmacological treatments.
To investigate the clinical potential of this treatment approach, the compounds were used in an animal model of Parkinson's disease. Adult rats were lesioned by intra-striatal 6-OH-DA (Przedborski, S. et al., Neuroscience 67, 631-47, 1995). After two weeks, a single injection of the compounds was administered in the lateral ventricle ipsilateral to the lesion. Amphetamine-induced rotations were measured bi-weekly throughout the experiment. Thirteen weeks after treatment they were given a single injection of fluorogold in the striatum to label the […] dopaminergic projection.

[3] = tested on: proliferating (BrdU+) cells; experiment: BrdU+ proliferating cells after single intra-ventricular injection; format: in vivo, rat; settings: BrdU days 2-4, sacrifice day 5
Description: as §1
(§2) Immunohistochemistry: Under deep anesthesia, animals were perfused transcardially with a rinse of saline, followed by 4% formaldehyde fixative (pH 7.4). Brains were removed immediately, stored in the fixative solution overnight and then in 30% sucrose for 3 days. Brains were frozen-sectioned at 16 μm. Immunohistochemical detection of BrdU and Hes3 was performed with an antigen-retrieval step (sections were boiled in 0.02M citrate, pH 6.0 in a microwave for 5 min, washed 3 times with distilled water, and incubated for 45 min in 2M HCl, at room temperature).
(§3) Hes3+ cells in the central nervous system (CNS) parenchyma were characterized and the means to activate the NSC compartment in vivo was investigated. Single injections of pharmacologically active compounds were performed in the lateral ventricle, bromodeoxyuridine (BrdU) was administered intraperitoneally (days 2-4) and the animals were sacrificed on day 5. At the subventricular zone (SVZ), a single intra-ventricular injection of Dll4 induced STAT3-S727 phosphorylation and Hes3 expression within 5 days. […] BrdU+ cell numbers were elevated in all these areas (FIG. 3a).

[4] = tested on: Hes3+ cells; experiment: Hes3+ cells after single intra-ventricular injection; format: in vivo, rat; settings: for number of stem cells/precursors in the adult brain: summary of in vivo treatments; for number of Hes3+ cells in the adult striatum and substantia nigra: single intracerebroventricular injection, within 5 days (FIG. 11)
Description: as §1, §2, §3
as §2, with “(Sections” for “(sections”, “minutes,” for “min,”

[5] = 6OHDA lesioned, striatum, RECA-1 (FIG. 5c)

insulin: insulin (Sigma, 19278), growth factor
effect on the vasculature (striatum, RECA-1) ([1]; 6OHDA lesioned, end of experiment (FIG. 5c)): relatively small effect | blood vessel numbers or size (undesirable effects, summary) [1]: increases the number of blood vessels adjacent to the injection site | neuroprotective effects on neurons [2]: exert neuroprotective effects | cell body diameter of TH+/Fluorogold+ cells in the substantia nigra [2]: increase | number of proliferating cells in the SVZ [3]: increased | number of stem cells/precursors in the adult brain [4]: increase

Dll4: Notch ligand Delta-like 4; mouse Dll4 (1389-D4) from R&D
diameter of the vessels [1, 5]: significantly decreased | number and size of blood vessels in the striatum [1]: opposing and long-lasting effects | blood vessel numbers or size (undesirable effects, summary) [1]: reduces the number and size of blood vessels | neuroprotective effects on neurons [2]: exert neuroprotective effects | number of proliferating cells in the SVZ [3]: increased | STAT3-S727 phosphorylation and Hes3 expression at the subventricular zone ([4]; single intra-ventricular injection, within 5 days): induced | number of Hes3+ cells in the adult striatum and substantia nigra [4]: increased | numbers of Hes3+ and Tie-2+ precursor cells in the SVZ ([4]; single ventricular injection): rapidly increased | number of stem cells/precursors in the adult brain [4]: increase

Ang-2: human angiopoietin-2 (623-AN) from R&D; antagonist for angiopoietin-1 at Tie2
number of vessels [1, 5]: significantly increased | number and size of blood vessels in the striatum [1]: opposing and long-lasting effects | blood vessel numbers or size (undesirable effects, summary) [1]: increases the number and size of blood vessels | neuroprotective effects on neurons [2]: exert neuroprotective effects | cell body diameter of TH+/Fluorogold+ cells in the substantia nigra [2]: increase | number of proliferating cells in the SVZ [3]: increased | number of Hes3+ cells in the adult striatum and substantia nigra [4]: increased | number of stem cells/precursors in the adult brain [4]: increase
